# Measured values reported in patent publication US20200316096A1, “COMBINATION OF DIET AND DRUG THERAPY FOR TREATING CANCER” (Trustees of Boston College, priority 2019, published 2020).
# What was measured:
# [1] = LC/MS/MS analysis of DON in plasma and VM-M3 brain tumour tissue; assay type: in vivo, mouse (VM/Dk); conditions: for concentration of DON in VM-M3 tumour tissue, mice fed KD-R versus mice fed SD-UR: 60 min after i.p. DON 1.0 mg/kg
# Experimental: FIGS. 4A and 4B. Restricted Ketogenic diet increases DON delivery to the VM-M3 GBM. The content of DON in the VM-M3 brain tumour tissue was quantified using two LC/MS/MS procedures, as described in Methods. The brain tissue was analyzed for DON content 60 minutes after i.p. DON injection. The values in experiment a are presented as mean of two independent samples, while the values in experiment b are presented as the mean±SEM (n=3). The difference between the two groups in experiment b was significant (P<0.01).
# Plasma and brain tissues were prepared for DON analysis one hour after systemic DON injection, as described in Methods below. […] In another independent experiment, using a similar analytical system, the concentration of DON in the VM-M3 tumour tissue was about 3-fold greater in mice fed the KD-R than in mice fed the SD-UR (FIG. 4B). In both methods of measurement, DON delivery to the brain was greater in the mice fed the KD-R than in the mice fed the SD-UR (FIGS. 4A and 4B). DON was detected in plasma 10 min after i.p. injection (data not shown) and was detected in brain tissue 60 min following injection. These findings indicate that the KD-R facilitated delivery of DON to the VM-M3 tumour tissue.
# Two independent LC-MS instruments and procedures were used to measure the amount of DON in the blood and in the VM-M3 tumour tissues. This was done to validate the accuracy of the procedures. A Triple quad method (Agilent 6460) was used to analyze DON in the first procedure (FIG. 4A). Mice were injected with 1.0 mg/kg of DON at either 10 min or 60 min before collection of the brains and blood. The brains were immediately flash frozen. Blood samples were collected before removal of the brain. 3N HCl+n-butanol (250 μl) was added to 50 μl of plasma, vortexed and then centrifuged at 16,000×g for 5 min to precipitate proteins. A 200 μl aliquot of the supernatant was transferred to a 1.5 ml tube and incubated at 60° C. for 30 min in a shaking water bath to perform the DON derivatization reaction. For the brain tissue, 5 μl of n-butanol containing 3N HCl was added per milligram tissue. The tissue sample was then homogenized with a glass pestle and was then vortexed and centrifuged, and prepared similarly to the plasma samples. Standard solutions were prepared by serial dilution to generate concentrations from 10 nM to 100 μM. DON was added to untreated mouse plasma or brain tissue to generate an internal standard curve. A high-resolution LC-MS QToF method (Agilent 6550) was used to analyze DON in the second procedure (FIG. 4B). Mice were injected with DON as above. Pre-weighed frozen brain tissue was transferred to a tube containing ceramic beads (Omni tubes). 3M HCl+butanol was added at a concentration of 5 μI/mg of tissue. […]
# [2] = shown previously (ref 33); cited from earlier work
structure (smiles),measurement,setting,value
"[N-]=[N+]=CC(=O)CC[C@H](N)C(=O)O [DON, 6-diazo-5-oxo-L-norleucine]",DON in plasma,[1]; 10 min after i.p. injection,detected
same,DON in brain tissue,[1]; 60 min following injection,detected
same,"concentration of DON in VM-M3 tumour tissue, mice fed KD-R versus mice fed SD-UR",[1]; first procedure (FIG. 4A),about 2 fold
same,"concentration of DON in VM-M3 tumour tissue, mice fed KD-R versus mice fed SD-UR",[1]; independent experiment (FIG. 4B),about 3 fold
same,toxic effects in C57BL/6J mice,[2],no toxic effects
